According to US20120058989A1, “ANTIBACTERIAL FLUOROQUINOLONE ANALOGS” (Achaogen, Inc., priority 2008, published 2012):

How the values were obtained:
Assay in all cases: MIC, CLSI broth microdilution
Format in all cases: cell-based
[1] = test system: P. aeruginosa APAE001 (Fluoroquinolone-susceptible, ATCC27853); details: Table 2
Protocol: (§1) Minimum inhibitory concentrations (MIC) were determined by reference Clinical and Laboratory Standards Institute (CLSI) broth microdilution methods per M7-A7 [2006]. Quality control ranges utilizing E. coli ATCC 25922, P. aeruginosa ATCC 27853 and S. aureus ATCC 29213, and interpretive criteria for comparator agents were as published in CLSI M100-S17 [2007]. Briefly, serial two-fold dilutions of the test compounds were prepared at 2× concentration in Mueller Hinton Broth. The compound dilutions were mixed in 96-well assay plates in a 1:1 ratio with bacterial inoculum. The inoculum was prepared by suspension of a colony from an agar plate that was prepared the previous day. Bacteria were suspended in sterile saline and added to each assay plate to obtain a final concentration of 5×10^5 CFU/mL. The plates were incubated at 35° C. for 20 hours in ambient air.

[2] = test system: S. aureus ASAU001 (Fluoroquinolone-susceptible, ATCC29213); details: Table 2
Protocol: as §1

[3] = test system: E. coli AECO001 (Fluoroquinolone susceptible, ATCC25922); details: Table 2, 35° C., 20 hours
Protocol: as §1

[4] = test system: S. aureus ASAU1031 (Fluoroquinolone-resistant); details: Table 2
Protocol: as §1

[5] = test system: P. aeruginosa APAE054 (Fluoroquinolone-resistant); details: Table 2
Protocol: as §1

[6] = test system: A. baumannii AABA1009 (Fluoroquinolone-resistant); details: Table 2
Protocol: as §1

[7] = test system: S. pneumoniae ASPN001 (Fluoroquinolone-susceptible, ATCC49619); details: Table 2
Protocol: as §1

[8] = test system: E. coli AECO066 (Fluoroquinolone-resistant); details: Table 2
Protocol: as §1

[9] = test system: A. baumannii AABA1065 (Fluoroquinolone-susceptible); details: Table 2
Protocol: as §1

[10] = test system: S. pneumoniae ASPN1027 (Fluoroquinolone-resistant); details: Table 2
Protocol: as §1

SMILES	MIC APAE 001 [1]	MIC ASAU 001 [2]	MIC AECO 001 [3]	MIC ASAU 1031 [4]	MIC APAE 054 [5]	MIC AABA 1009 [6]	MIC ASPN 001 [7]	MIC AECO 066 [8]	MIC AABA 1065 [9]	MIC ASPN 1027 [10]
O=C(O)c1cn(C2CC2)c2c3c(c(F)cc2c1=O)N1CCCC1CSC3 (stereo not drawn) [8/10, 13-Cyclopropyl-8-fluoro-10-oxo-3a,4,5,6,10,13-hexahydro-1H,3H-pyrrolo[2′,1′:3,4][1,4]thiazepino[5,6-h]quinoline-11-carboxylic acid]	C (MIC's of greater than 8.0 μg/mL = C)	A (MIC's of 1.0 μg/mL or less = A)	B (MIC's of greater than 1.0 μg/mL to 8.0 μg/mL = B)	C (MIC's of greater than 8.0 μg/mL = C)	C (MIC's of greater than 8.0 μg/mL = C)	C (MIC's of greater than 8.0 μg/mL = C)	C (MIC's of greater than 8.0 μg/mL = C)	C (MIC's of greater than 8.0 μg/mL = C)	B (MIC's of greater than 1.0 μg/mL to 8.0 μg/mL = B)	C (MIC's of greater than 8.0 μg/mL = C)
O=C(O)c1cn(C2CC2)c2c3c(c(F)cc2c1=O)N1CCCC1CS(=O)(=O)C3 (stereo not drawn) [8/12, 13-Cyclopropyl-8-fluoro-10-oxo-3a,4,5,6,10,13-hexahydro-1H,3H-pyrrolo[2′,1′:3,4][1,4]thiazepino[5,6-h]quinoline-11-carboxylic acid 2,2-dioxide]	C (MIC's of greater than 8.0 μg/mL = C)	B (MIC's of greater than 1.0 μg/mL to 8.0 μg/mL = B)	C (MIC's of greater than 8.0 μg/mL = C)	C (MIC's of greater than 8.0 μg/mL = C)	C (MIC's of greater than 8.0 μg/mL = C)	C (MIC's of greater than 8.0 μg/mL = C)	C (MIC's of greater than 8.0 μg/mL = C)	C (MIC's of greater than 8.0 μg/mL = C)	C (MIC's of greater than 8.0 μg/mL = C)	C (MIC's of greater than 8.0 μg/mL = C)
O=C(O)c1cn(C2CC2)c2c3c(c(F)cc2c1=O)N1CCCC1C[S+]([O-])C3 (stereo not drawn) [8/14, 13-Cyclopropyl-8-fluoro-10-oxo-3a,4,5,6,10,13-hexahydro-1H,3H-pyrrolo[2′,1′:3,4][1,4]thiazepino[5,6-h]quinoline-1′-carboxylic acid 2-oxide]	C (MIC's of greater than 8.0 μg/mL = C)	B (MIC's of greater than 1.0 μg/mL to 8.0 μg/mL = B)	B (MIC's of greater than 1.0 μg/mL to 8.0 μg/mL = B)	C (MIC's of greater than 8.0 μg/mL = C)	C (MIC's of greater than 8.0 μg/mL = C)	C (MIC's of greater than 8.0 μg/mL = C)	C (MIC's of greater than 8.0 μg/mL = C)	C (MIC's of greater than 8.0 μg/mL = C)	B (MIC's of greater than 1.0 μg/mL to 8.0 μg/mL = B)	C (MIC's of greater than 8.0 μg/mL = C)
O=C(O)c1cn(C2CC2)c2c3c(c(F)cc2c1=O)N1CCCC1C(=O)NC3 (stereo not drawn) [10/6, 13-Cyclopropyl-8-fluoro-3,10-dioxo-2,3,3a,4,5,6,10,13-octahydro-1H-pyrrolo[2′,1′:3,4][1,4]diazepino[5,6-h]quinoline-1′-carboxylic acid]	B (MIC's of greater than 1.0 μg/mL to 8.0 μg/mL = B)	A (MIC's of 1.0 μg/mL or less = A)	A (MIC's of 1.0 μg/mL or less = A)	B (MIC's of greater than 1.0 μg/mL to 8.0 μg/mL = B)	C (MIC's of greater than 8.0 μg/mL = C)	C (MIC's of greater than 8.0 μg/mL = C)	A (MIC's of 1.0 μg/mL or less = A)	C (MIC's of greater than 8.0 μg/mL = C)	B (MIC's of greater than 1.0 μg/mL to 8.0 μg/mL = B)	B (MIC's of greater than 1.0 μg/mL to 8.0 μg/mL = B)
O=C(O)c1cn(C2CC2)c2c3c(c(F)cc2c1=O)N1CCCC1COC3 (stereo not drawn) [11/8, 13-Cyclopropyl-8-fluoro-10-oxo-3a,4,5,6,10,13-hexahydro-1H,3H-pyrrolo[2′,1′:3,4][1,4]oxazepino[5,6-h]quinoline-11-carboxylic acid]	C (MIC's of greater than 8.0 μg/mL = C)	A (MIC's of 1.0 μg/mL or less = A)	A (MIC's of 1.0 μg/mL or less = A)	B (MIC's of greater than 1.0 μg/mL to 8.0 μg/mL = B)	C (MIC's of greater than 8.0 μg/mL = C)	C (MIC's of greater than 8.0 μg/mL = C)	A (MIC's of 1.0 μg/mL or less = A)	C (MIC's of greater than 8.0 μg/mL = C)	A (MIC's of 1.0 μg/mL or less = A)	C (MIC's of greater than 8.0 μg/mL = C)
O=C(O)c1cn(C2CC2)c2c3c(c(F)cc2c1=O)N1CCCC1CN=C3 (stereo not drawn) [12/4, 13-Cyclopropyl-8-fluoro-10-oxo-3a,4,5,6,10,13-hexahydro-3H-pyrrolo[2′,1′:3,4][1,4]diazepino[5,6-h]quinoline-11-carboxylic acid]	B (MIC's of greater than 1.0 μg/mL to 8.0 μg/mL = B)	A (MIC's of 1.0 μg/mL or less = A)	A (MIC's of 1.0 μg/mL or less = A)	C (MIC's of greater than 8.0 μg/mL = C)	C (MIC's of greater than 8.0 μg/mL = C)	C (MIC's of greater than 8.0 μg/mL = C)	B (MIC's of greater than 1.0 μg/mL to 8.0 μg/mL = B)	C (MIC's of greater than 8.0 μg/mL = C)	C (MIC's of greater than 8.0 μg/mL = C)	C (MIC's of greater than 8.0 μg/mL = C)
O=C(O)C(F)(F)F.O=C(O)c1cn(C2CC2)c2c3c(c(F)cc2c1=O)N1CCCC1CNC3 (stereo not drawn) [13/5, 13-Cyclopropyl-8-fluoro-10-oxo-2,3,3a,4,5,6,10,13-octahydro-1H-pyrrolo[2′,1′:3,4][1,4]diazepino[5,6-h]quinoline-11-carboxylic acid trifluoroacetate]	B (MIC's of greater than 1.0 μg/mL to 8.0 μg/mL = B)	A (MIC's of 1.0 μg/mL or less = A)	A (MIC's of 1.0 μg/mL or less = A)	C (MIC's of greater than 8.0 μg/mL = C)	C (MIC's of greater than 8.0 μg/mL = C)	C (MIC's of greater than 8.0 μg/mL = C)	B (MIC's of greater than 1.0 μg/mL to 8.0 μg/mL = B)	C (MIC's of greater than 8.0 μg/mL = C)	A (MIC's of 1.0 μg/mL or less = A)	C (MIC's of greater than 8.0 μg/mL = C)
CC(=O)N1Cc2c(c(F)cc3c(=O)c(C(=O)O)cn(C4CC4)c23)N2CCCC2C1 (stereo not drawn) [14/4, 2-Acetyl-13-cyclopropyl-8-fluoro-10-oxo-2,3,3a,4,5,6,10,13-octahydro-1H-pyrrolo[2′,1′:3,4][1,4]diazepino[5,6-h]quinoline-11-carboxylic acid]	C (MIC's of greater than 8.0 μg/mL = C)	C (MIC's of greater than 8.0 μg/mL = C)	B (MIC's of greater than 1.0 μg/mL to 8.0 μg/mL = B)	C (MIC's of greater than 8.0 μg/mL = C)	C (MIC's of greater than 8.0 μg/mL = C)	C (MIC's of greater than 8.0 μg/mL = C)	C (MIC's of greater than 8.0 μg/mL = C)	C (MIC's of greater than 8.0 μg/mL = C)	C (MIC's of greater than 8.0 μg/mL = C)	C (MIC's of greater than 8.0 μg/mL = C)
CN1Cc2c(c(F)cc3c(=O)c(C(=O)O)cn(C4CC4)c23)N2CCCC2C1.O=C(O)C(F)(F)F (stereo not drawn) [15/3, 13-Cyclopropyl-8-fluoro-2-methyl-10-oxo-2,3,3a,4,5,6,10,13-octahydro-1H-pyrrolo[2′,1′:3,4][1,4]diazepino[5,6-h]quinoline-11-carboxylic acid trifluoroacetate]	C (MIC's of greater than 8.0 μg/mL = C)	A (MIC's of 1.0 μg/mL or less = A)	A (MIC's of 1.0 μg/mL or less = A)	C (MIC's of greater than 8.0 μg/mL = C)	C (MIC's of greater than 8.0 μg/mL = C)	C (MIC's of greater than 8.0 μg/mL = C)	B (MIC's of greater than 1.0 μg/mL to 8.0 μg/mL = B)	C (MIC's of greater than 8.0 μg/mL = C)	A (MIC's of 1.0 μg/mL or less = A)	C (MIC's of greater than 8.0 μg/mL = C)
